Experimental data from BindingDB's records for doi:10.1016/s1074-5521(99)80118-5 (Princeton University, 1999).

Biological target: T1, Tyrosine-protein kinase ZAP-70 (Homo sapiens, UniProt P43403)
T1 sequence (P43403 whole entry): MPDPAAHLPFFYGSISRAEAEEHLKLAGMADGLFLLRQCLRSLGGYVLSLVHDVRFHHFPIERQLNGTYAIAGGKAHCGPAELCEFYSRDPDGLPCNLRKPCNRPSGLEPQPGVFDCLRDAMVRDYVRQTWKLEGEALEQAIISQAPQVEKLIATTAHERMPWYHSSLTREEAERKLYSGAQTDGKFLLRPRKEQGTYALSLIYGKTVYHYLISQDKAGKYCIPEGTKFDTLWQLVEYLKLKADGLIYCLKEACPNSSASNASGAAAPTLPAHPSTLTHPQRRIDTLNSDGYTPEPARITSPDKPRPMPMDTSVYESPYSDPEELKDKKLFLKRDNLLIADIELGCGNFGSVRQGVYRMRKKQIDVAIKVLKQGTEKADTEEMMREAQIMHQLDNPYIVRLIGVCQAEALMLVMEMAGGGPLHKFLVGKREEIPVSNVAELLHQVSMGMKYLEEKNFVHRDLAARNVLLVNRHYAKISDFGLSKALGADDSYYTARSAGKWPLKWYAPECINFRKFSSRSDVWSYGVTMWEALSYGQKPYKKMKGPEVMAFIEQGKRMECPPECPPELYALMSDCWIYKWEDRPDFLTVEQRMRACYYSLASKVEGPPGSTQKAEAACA
Assay: Inhibition Assay
Text: Inhibition of protein tyrosine kinases

IC50: > 100 µM
SMILES: Cc1ccc(-c2nn(C(C)(C)C)c3ncnc(N)c23)cc1
